The values below come from patent publication US8138168B1 (Takeda Pharmaceutical Company Limited, priority 2007, dated 2012).

This test concerns the target T1, Recombinant human renin (Homo sapiens, UniProt P00797).
T1 construct: isolate the active form (residues 67-406); made in house; host or cells: FreeStyle 293-F cells (transient expression of pcDNA3.1(+)/hREN)
T1 sequence (P00797 67-406): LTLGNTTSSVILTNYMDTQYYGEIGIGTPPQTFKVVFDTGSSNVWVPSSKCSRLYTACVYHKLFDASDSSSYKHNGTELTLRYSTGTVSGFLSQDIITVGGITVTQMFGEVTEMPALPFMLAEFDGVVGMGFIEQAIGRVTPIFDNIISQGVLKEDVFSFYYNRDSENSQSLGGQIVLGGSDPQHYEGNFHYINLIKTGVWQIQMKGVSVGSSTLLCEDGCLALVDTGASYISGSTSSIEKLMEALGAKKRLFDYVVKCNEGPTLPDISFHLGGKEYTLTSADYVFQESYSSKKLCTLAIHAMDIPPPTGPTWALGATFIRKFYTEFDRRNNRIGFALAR
The test is described as follows: In vitro enzymatic activity assay of renin inhibitors (fluorogenic peptide substrate). It is filed as biochemical. Conditions: read-out: IC50 of Exemplified Compounds Against Renin. A digest of the protocol:
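Recombinant human renin (3 nM final) pre-incubated 10 min at 37 °C with compounds in pH 7.4 Hepes/EDTA/DTT/0.1 mg/mL BSA/Brij35 buffer (optionally plus 2% BSA), 5% DMSO final; fluorogenic QXL520/HiLyteFluo488 peptide substrate added.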

Structures are written as SMILES. Bounds are passed on as bounds.

Regarding `COCCCn1c(C2CCCN(C(=O)C[C@@H](N)Cc3ccc(Cl)cc3)C2)nc2ccccc21` (stereo partly drawn) [Compound 67, (3S)-3-amino-4-(4-chlorophenyl)-1-(3-(1-(3-methoxypropyl)-1H-benzo[d]imidazol-2-yl)piperidin-1-yl)butan-1-one], the IC50 – broadly, the concentration that inhibits the measured activity by half – is greater than 1000 nM.

For `COCCCn1c([C@@H]2CCCN(C(=O)C[C@H](N)CNC(=O)Nc3ccccc3)C2)nc2ccccc21` [Compound 269, 1-((S)-2-amino-4-((R)-3-(1-(3-methoxypropyl)-1H-benzo[d]imidazol-2-yl)piperidin-1-yl)-4-oxobutyl)-3-phenylurea], the IC50 lay in the range of 100 to 1000 nM. Under `COCCCn1c([C@@H]2CCCN(C(=O)C[C@H](N)CNC(=O)c3ccccc3Cl)C2)nc2ccccc21` [Compound 320, N-((S)-2-amino-4-((R)-3-(1-(3-methoxypropyl)-1H-benzo[d]imidazol-2-yl)piperidin-1-yl)-4-oxobutyl)-2-chlorobenzamide] stands 100 to 1000 nM. Consider `COCCCn1c([C@@H]2CCCN(C(=O)C[C@H](N)Cc3ccc(-c4ccc5[nH]nc(N)c5c4)cc3)C2)nc2c(C)cccc21` [Compound 500, (R)-3-amino-4-(4-(3-amino-1H-indazol-5-yl)phenyl)-1-((R)-3-(1-(3-methoxypropyl)-4-methyl-1H-benzo[d]imidazol-2-yl)piperidin-1-yl)butan-1-one], for which the IC50 was less than 100 nM.

`COCCCn1c([C@@H]2CCCN(C(=O)C[C@H](N)Cc3ccc(C(=O)NC4CCCCC4)cc3)C2)nc2ccccc21` [Compound 203, 4-((R)-2-amino-4-((R)-3-(1-(3-methoxypropyl)-1H-benzo[d]imidazol-2-yl)piperidin-1-yl)-4-oxobutyl)-N-cyclohexylbenzamide]: the IC50 lay in the range of 100 to 1000 nM. In the case of `COCCCn1c([C@@H]2CCCN(C(=O)C[C@H](N)Cc3ccc(-c4cnccc4OC)cc3)C2)nc2ccccc21` [Compound 162, (R)-3-Amino-1-((R)-3-(1-(3-methoxypropyl)-1H-benzo[d]imidazol-2-yl)piperidin-1-yl)-4-(4-(4-methoxypyridin-3-yl)phenyl)butan-1-one] it was less than 100 nM; in that of `COCCCn1c([C@@H]2CCCN(C(=O)[C@@H]3CN(C(=O)c4cccc5ccccc45)C[C@H]3N)C2)nc2ccccc21` [Compound 376, ((3R,4S)-1-(1-naphthoyl)-4-aminopyrrolidin-3-yl)((R)-3-(1-(3-methoxypropyl)-1H-benzo[d]imidazol-2-yl)piperidin-1-yl)methanone], 100 to 1000 nM; in that of `COCCCn1c([C@@H]2CCCN(C(=O)C[C@H](N)Cc3ccc(N4CCCC4=O)cc3)C2)nc2ccccc21` [Compound 209, 1-(4-((R)-2-amino-4-((R)-3-(1-(3-methoxypropyl)-1H-benzo[d]imidazol-2-yl)piperidin-1-yl)-4-oxobutyl)phenyl)pyrrolidin-2-one], 100 to 1000 nM. On to `COCCCn1c([C@@H]2CCCN(C(=O)[C@@H]3CN(C(=O)c4ccc5ccccc5c4)C[C@H]3N)C2)nc2ccccc21` [Compound 362, ((3R,4S)-1-(2-naphthoyl)-4-aminopyrrolidin-3-yl)((R)-3-(1-(3-methoxypropyl)-1H-benzo[d]imidazol-2-yl)piperidin-1-yl)methanone], for which the IC50 is 100 to 1000 nM. For `CC(=O)NCCn1c([C@@H]2CCCN(C(=O)C[C@H](N)Cc3ccc(-c4ccc5c(c4)NC(=O)CO5)cc3)C2)nc2ccccc21` [Compound 469], the IC50 lay within 100 to 1000 nM.

Take `COCCCn1c([C@@H]2CCCN(C(=O)C[C@H](N)CNS(=O)(=O)c3ccc(Cl)c(Cl)c3)C2)nc2ccccc21` [Compound 305, N-((S)-2-amino-4-((R)-3-(1-(3-methoxypropyl)-1H-benzo[d]imidazol-2-yl)piperidin-1-yl)-4-oxobutyl)-3,4-dichlorobenzenesulfonamide]: the IC50 is 100 to 1000 nM. `COCCCn1c([C@@H]2CCCN(C(=O)C[C@H](N)Cc3ccc(-c4ccoc4)cc3)C2)nc2ccccc21` [Compound 145, (R)-3-amino-4-(4-(furan-3-yl)phenyl)-1-((R)-3-(1-(3-methoxypropyl)-1H-benzo[d]imidazol-2-yl)piperidin-1-yl)butan-1-one]: the IC50 is less than 100 nM.
